Measured values from publication PMC3744471, “Mitochondria Are the Target Organelle of Differentiation-Inducing Factor-3, an Anti-Tumor Agent Isolated from Dictyostelium Discoideum” (PLoS ONE, 2013).

How the values were obtained:
mouse liver mitochondria = experiment: Mitochondrial oxygen consumption (Clark-type oxygen electrode); format: biochemical; details: for Effect on basal rate of O2 consumption: 1–100 µM; for PC100 (µM) for Mito. O2 consumption: 100% promoting concentration: doubles the basal rate of oxygen consumption, 30°C
Procedure: Mitochondria were isolated from mouse liver (ICR; 7–10 week-old females) by differential centrifugation as described previously. Cells were homogenized in a Potter glass homogenizer with H-Buffer (250 mM sucrose, 10 mM Tris-HCl pH 7.4), and centrifuged at 800g for 1 min at 4°C. The supernatant was centrifuged at 6,000g for 5 min, and the resulting pellet, the crude mitochondrial fraction, was suspended in H-Buffer. The suspension was layered over a discontinuous sucrose gradient consisting of 1.1 M and 1.6 M sucrose in a Tris buffer (10 mM Tris-HCl pH 7.4), and centrifuged for 3 h at 90,000g at 4°C. The interface was collected in Tris buffer and centrifuged at 6,000g for 5 min. The resulting pellets were suspended in Tris buffer and used for experiments after confirming the presence of the mitochondrial marker cytochrome c.
Mitochondrial oxygen consumption was determined using a Clark-type oxygen electrode (Strathkelvin Instruments Ltd., North Lanarkshire, Scotland) as described, [39]. The mitochondria-enriched fraction was incubated at 30°C in oxygen measurement buffer (225 mM mannitol, 75 mM sucrose, 10 mM KCl, 0.1 mM EDTA, 3 mM phosphate, 5 mM succinate, 5 mM glutamate, and 20 mM Tris-HCl pH 7.4) in the presence or absence of various concentrations of the DIF-like molecules or CCCP. After recording ‘State 4’ of the respiration reaction, an aliquot of ADP was added to a final concentration of 200 µM to induce ‘State 3’. The PC100 (100% promoting concentration) of each additive was defined as the drug concentration that doubled the basal rate of oxygen consumption during State 3, which was calculated from the dose-response plot for the rate of oxygen consumption (Figure 8).

HeLa cells [1] = experiment: Electron microscopy of organelle morphology; format: cell-based, human; details: 3 days, Bu-DIF-3 5 µM, BODIPY-DIF-3 20 µM
Procedure: HeLa cells were incubated for 3 days with 2 ml DMEM-FBS containing 0.2% DMSO and 5 µM Bu-DIF-3 or 20 µM BODIPY-DIF-3 in 35-mm plastic dishes at 2×10^4 cells/dish. The cells were fixed at 4°C for 30 min with PB (0.1 M phosphate buffer, pH 7.4) containing 2% paraformaldehyde and 2% glutaraldehyde and then with PB containing 2% glutaraldehyde at 4°C overnight. The cell samples were rinsed 3 times with PB for 30 min each, followed by post fixation with 2% OsO4 in PB at 4°C for 1 h. The samples were dehydrated through a graded ethanol (EtOH) series starting with 50% and 70% EtOH for 5 min each at 4°C, then 90% EtOH for 5 min at room temperature, followed by three changes of 100% EtOH for 5 min each at room temperature. The samples were then transferred to a resin (Quetol-812; Nisshin EM Co., Tokyo, Japan) and polymerized at 60°C for 48 h. Ultra-thin (70 nm) sections were cut with an ultramicrotome (ULTRACUT UCT; Leica, Wetzlar, Germany), collected onto copper grids, stained with 2% uranyl acetate at room temperature for 15 min, and then rinsed with distilled water. The sections were then stained with Lead stain solution (Sigma-Aldrich) at room temperature for 3 min. The sections were observed under a transmission electron microscope (JEM-1200Ex; JEOL Ltd., Tokyo, Japan) at an acceleration voltage of 80 kV. Digital images (2048×2048 pixels) were taken with a charge-coupled device camera (VELETA; Olympus Soft Imaging Solutions GmbH, Tokyo, Japan).

[2] = test system: mitochondrial malate dehydrogenase (mMDH); parameters: method as in PMID 20173310; details: cited from earlier work
HeLa cells [3] = experiment: Withdrawal of BODIPY-DIF-3: recovery of cell growth and mitochondrial morphology; format: cell-based, human; details: 20 µM 3 days, then 2 days DMSO
Procedure: In the assay of the effect of withdrawal of BODIPY-DIF-3 on cell growth (Figure 6A), HeLa cells were incubated for 3 days with 2 ml of DMEM-FBS containing 20 µM BODIPY-DIF-3 in 35-mm tissue culture dishes (Becton Dickinson, Franklin Lakes, NJ, USA) (5×10^3 cells/dish), washed 2 times with 2 ml of PBS(–), and further incubated for 2 days with 2 ml of DMEM-FBS containing 0.2% DMSO or 20 µM BODIPY-DIF-3; meanwhile, control cells were incubated for 5 days with 2 ml of DMEM-FBS containing 0.2% DMSO. Relative cell number was assessed as described above, and all experiments were performed in triplicate.

| Structure (SMILES) | Effect on basal rate of O2 consumption (mouse liver mitochondria) | PC100 (µM) for Mito. O2 consumption (mouse liver mitochondria) | Lipid bodies in treated cells (HeLa cells [1]) | Number of swollen mitochondria (HeLa cells [1]) | Total number of mitochondria (HeLa cells [1]) | Effect on mitochondrial O2 consumption (mouse liver mitochondria; 0.1–1 µM) | Binding to and inhibition of mMDH [2] | Reversibility of action after withdrawal at Day 3 (HeLa cells [3]) |
| --- | --- | --- | --- | --- | --- | --- | --- | --- |
| CCCCCC(=O)c1c(O)cc(OCCCC)c(Cl)c1O [Bu-DIF-3, 1-(3-chloro-2,6-dihydroxy-4-butoxyphenyl)hexan-1-one] | dose-dependently promoted | 1.7 µM | many lipid bodies were observed | increase in the number of swollen mitochondria | tended to cause a decrease | – | – | – |
| N#CC(C#N)=NNc1cccc(Cl)c1 [CCCP, carbonyl cyanide m-chlorophenylhydrazone, reference compound] | – | 0.43 µM | – | – | – | promoted mitochondrial O2 consumption in a dose-dependent manner | – | – |
| CCCCCC(=O)c1c(O)cc(OC)c(Cl)c1O [DIF-3, 1-(3-chloro-2,6-dihydroxy-4-methoxyphenyl)hexan-1-one] | dose-dependently promoted | 12 µM | – | – | – | – | neither binds nor inhibits mMDH | – |
| CCCCCC(=O)c1c(O)cc(OCCCCNC(=O)CCC2=[N+]3C(=Cc4c(C)cc(C)n4[B-]3(F)F)C=C2)c(Cl)c1O [BODIPY-DIF-3] | dose-dependently promoted | 25 µM | many lipid bodies were observed | increase in the number of swollen mitochondria | tended to cause a decrease | – | – | reversible |
